Consider eleven molecules from paper PMC9926234, “Iterative computational design and crystallographic screening identifies potent inhibitors targeting the Nsp3 macrodomain of SARS-CoV-2” (Proceedings of the National Academy of Sciences of the …, 2023).

Assay [1] deals with T1, SARS-CoV-2 NSP3 Mac1 (Severe acute respiratory syndrome coronavirus 2, UniProt P0DTD1). Set-up: contains a conserved macrodomain enzyme (Mac1); Differential scanning fluorimetry of Mac1, maximum thermal upshift. Particulars: maximum shift over tested concentrations; binder.
Assay [2] has as its target T1, SARS-CoV-2 NSP3 Mac1. As to the kind of experiment: biochemical. As to conditions: for IC50: read-out: IC50; for Ki: read-out: Ki***. The assay is classed as binding.
Assay [3] deals with T1, SARS-CoV-2 NSP3 Mac1. The class given is binding. Particulars: for Refined occupancy: ligand occupancy after refinement (phenix.refine); for HIT*: true hit = binding in crystallographic soaking or the HTRF-based binding assay. Background: In TR-FRET formats the signal depends on donor and acceptor labels being close together.
Assay [4] addresses T1, SARS-CoV-2 NSP3 Mac1. The assay is classed as binding. Particulars: for Spearman est (compound concentration vs apparent Tm): DSF dose responsiveness, 1 µM nsp3 mac1, adj p given; for DSF max dTma: maximal thermal upshift. Further details: contains a conserved macrodomain enzyme (Mac1). Put shortly: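 ΔTma values are thermal shifts relative to a co-located DMSO-only control, read with 5 µM Fluorescent Yellow dye. Each compound was tested in triplicate over seven concentrations (two-fold steps, top 1,000 or 100 μM). Spearman correlation of concentration versus ΔTma tested whether the shift was dose-responsive.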

For the next assay, the target named is T2, TARG1 (Homo sapiens, UniProt Q9Y530).
T2 construct: Targ1_HTRF; HTRF assay; pET22b(+); His6, TEV; 1-153; made in house
T2 sequence (Q9Y530 with tags, fused parts or gaps): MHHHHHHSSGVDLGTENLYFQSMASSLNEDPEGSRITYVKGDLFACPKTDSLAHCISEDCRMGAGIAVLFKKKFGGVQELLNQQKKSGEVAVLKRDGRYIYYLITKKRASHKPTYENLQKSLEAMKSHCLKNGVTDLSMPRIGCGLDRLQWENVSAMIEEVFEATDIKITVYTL
In words: adapted HTRF-based peptide displacement assay (off-target). The assay is classed as binding.

For another assay, the target named is T3, MacroD2 (Homo sapiens, UniProt A1Z1Q3).
T3 construct: MacroD2_HTRF; HTRF assay; pET22b(+); His6, TEV, Avi; made in house
T3 sequence (A1Z1Q3 with tags, fused parts or gaps): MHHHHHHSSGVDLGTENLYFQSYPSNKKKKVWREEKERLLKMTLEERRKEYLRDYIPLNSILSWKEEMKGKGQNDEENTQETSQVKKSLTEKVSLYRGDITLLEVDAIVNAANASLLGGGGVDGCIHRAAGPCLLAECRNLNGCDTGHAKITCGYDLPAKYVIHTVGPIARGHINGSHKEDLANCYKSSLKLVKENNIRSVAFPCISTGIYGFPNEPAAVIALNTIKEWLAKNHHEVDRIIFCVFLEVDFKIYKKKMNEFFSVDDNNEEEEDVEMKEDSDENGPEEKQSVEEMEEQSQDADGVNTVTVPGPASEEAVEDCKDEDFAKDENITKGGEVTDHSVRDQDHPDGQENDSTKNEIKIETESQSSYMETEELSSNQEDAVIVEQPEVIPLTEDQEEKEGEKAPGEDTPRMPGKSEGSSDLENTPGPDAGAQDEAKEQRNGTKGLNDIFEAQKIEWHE
The assay is described as above. The class given is binding.

The subject of assay [5] is SARS-CoV-2 NSP3 Mac1. As to the kind of experiment: Overall hit call (binding in crystallographic soaking or the HTRF-based binding assay). From the text:
Supplement pnas.2212931120.sd01.xlsx, sheet "Compound Summary" | column: HIT*

Setting [6] is: Ki estimation from HTRF-derived IC50, Cheng-Prusoff, peptide 400nM, Kd 2.68µM.
[7] abbreviates: PanDDA 1-BDC value of the event, crystal soak, compound concentration 100 mM, per dataset.
The mark [8] stands for this setting: PanDDA event map, 1 minus background density correction, crystal soaking of Mac1.
Setting [9] is: crystal soak, compound concentration 100 mM, per dataset.
Setting [10] is: ligand modeled from this dataset, compound concentration 100 mM.
[11] abbreviates: ligand modeled from this dataset, compound concentration 100 mM, Echo dispense volume 40 or 80 nl.

SMILES strings stand for the structures. “And” between values parts separate entries of the source, which are not always exact repeats. Equal values may be shown once. Read-outs that look alike come from different tables or passages of the source.

Take `CC1CC(C(=O)O)N1C(=O)c1cc(O)nc2ccc(F)cc12.O=C(O)C(F)(F)F` (stereo not drawn) [R0658, REAL300007260658]: the “DSF max dTma” value at SARS-CoV-2 NSP3 Mac1 [1] was 0.37 °C.

As usually defined, the IC50 is the concentration that inhibits the measured activity by half. Broadly, the Ki is a dissociation constant, usually derived from enzyme kinetics or from competition with a known ligand. For `O=C(O)C1(F)CN(c2cc(Nc3ccccc3)ncn2)CC12CCC2` (stereo not drawn) [LL1_0025], the “DSF max dTma” value on SARS-CoV-2 NSP3 Mac1 [1] was 1.36 °C. Also, on SARS-CoV-2 NSP3 Mac1 [2] (HTRF), the IC50 is 121 µM. Also, at SARS-CoV-2 NSP3 Mac1 [2] (setting [6]), the Ki was 106 µM. The molecule further came in with a 1-BDC on SARS-CoV-2 NSP3 Mac1 [3] (setting [7]) of 0.12. In addition, at SARS-CoV-2 NSP3 Mac1 [3] (setting [8]), the “1-BDC (PanDDA)” value was 0.14. On SARS-CoV-2 NSP3 Mac1 [3] (setting [9]), the “PanDDA hit?” value is “TRUE”. For the same molecule, the “Modeled?” value on SARS-CoV-2 NSP3 Mac1 [3] (setting [10]) is recorded as “TRUE”. This molecule had a Refined occupancy on SARS-CoV-2 NSP3 Mac1 [3] (crystal soaking of Mac1) of 28. At SARS-CoV-2 NSP3 Mac1 [3], the “HIT*” value is “Y”. In addition, at SARS-CoV-2 NSP3 Mac1 [4], the “Spearman est (compound concentration vs apparent Tm)” value is listed as 0.71 and the “DSF max dTma” value is recorded as 1.36 ˚C.

As to `NC(=O)Nc1ccc(C(=O)NC2c3cccc(O)c3CC2C(=O)O)cc1` (stereo not drawn) [Z8539_0041, 8539_0041], on SARS-CoV-2 NSP3 Mac1 [1], the “DSF max dTma” value turned out to be 6 °C.

With `c1csc(CC2CCN(c3ncnc4[nH]ccc34)C2)n1` (stereo not drawn) [Z6891, ZINC000897286891], the “DSF max dTma” value at SARS-CoV-2 NSP3 Mac1 [1] was 0.15 °C.

Take `Cc1noc(CC2CCCN(c3ncnc4[nH]c5cc(F)ccc5c34)C2)n1` (stereo not drawn) [LL1_0005]: the “DSF max dTma” value at SARS-CoV-2 NSP3 Mac1 [1] was 0.6 °C. This molecule also registered a 1-BDC on SARS-CoV-2 NSP3 Mac1 [3] (setting [8]) of 0.11. The molecule also came in with a Refined occupancy on SARS-CoV-2 NSP3 Mac1 [3] (crystal soaking of Mac1) of 22. In addition, the “HIT*” value on SARS-CoV-2 NSP3 Mac1 [3] is reported as “Y”. In addition, at SARS-CoV-2 NSP3 Mac1 [4], the “Spearman est (compound concentration vs apparent Tm)” value is given as 0.01 and the “DSF max dTma” value is 0.6 ˚C.

As for `CS(=O)(=O)C1CCCN(c2ncnc3[nH]c4cc(F)ccc4c23)C1` (stereo not drawn) [LL1_0027], the “DSF max dTma” value on SARS-CoV-2 NSP3 Mac1 [1] is 0.8 °C; on SARS-CoV-2 NSP3 Mac1 [4], 0.8 ˚C. Also, the 1-BDC is 0.09 at SARS-CoV-2 NSP3 Mac1 [3] (setting [7]) and 0.06 on SARS-CoV-2 NSP3 Mac1 [3] (setting [8]). Besides, the “PanDDA hit?” value at SARS-CoV-2 NSP3 Mac1 [3] (setting [9]) is “TRUE”. Further, at SARS-CoV-2 NSP3 Mac1 [3] (setting [11]), the “Modeled?” value is on record as “TRUE”. On SARS-CoV-2 NSP3 Mac1 [3] (crystal soaking of Mac1), this molecule showed a Refined occupancy of 12. Also, on SARS-CoV-2 NSP3 Mac1 [3], the “HIT*” value was “Y”. At SARS-CoV-2 NSP3 Mac1 [4], the “Spearman est (compound concentration vs apparent Tm)” value is 0.41.

On to `O=C(Nc1ccc(C(=O)N[C@H]2c3cccc(O)c3C[C@H]2C(=O)O)cc1)NC1CC1` [Z8601], for which the “displacement of the ADPr-conjugated peptide (off-target activity)” value at TARG1 (compound at 50 µM) is “no displacement”; at TARG1 (compound at 1 mM) it was “approximately 50%”; at MacroD2 (compound at 50 µM) it was “no displacement”; on MacroD2 (compound at 1 mM) it was “approximately 50%”.

Regarding `O=C(O)CCC1CN(c2ncnc3[nH]c4cc(F)ccc4c23)CCO1` (stereo not drawn) [LL114_0041], on SARS-CoV-2 NSP3 Mac1 [2] (HTRF ADPr-conjugated peptide displacement), the concentration for half-maximal inhibition (IC50) stood at 69.2 µM. Also, on SARS-CoV-2 NSP3 Mac1 [2], the Ki came to 60.2 µM. Moreover, the “HIT*” value in the assay with SARS-CoV-2 NSP3 Mac1 [5] is “Y”. The 1-BDC at SARS-CoV-2 NSP3 Mac1 [3] (PanDDA 1-BDC of the event, compound stock 100 mM, Echo dispense volume 80 nl) is 0.15; at SARS-CoV-2 NSP3 Mac1 [3] (PanDDA event map 1-BDC, crystal soak, Compound_concentration 100 mM, PanDDA run dmso_34 or nohits_35 per dataset) it was 0.15; at SARS-CoV-2 NSP3 Mac1 [3] (PanDDA event map, crystal soak, Compound_concentration 100 mM, Echo_dispense_volume 40 nl) it was 0.16. Also, on SARS-CoV-2 NSP3 Mac1 [3] (setting [8]), the “1-BDC (PanDDA)” value stood at 0.16. The “PanDDA hit?” value was “TRUE” on SARS-CoV-2 NSP3 Mac1 [3] (crystal soak, Compound_concentration 100 mM, Echo dispense 40 nl, PanDDA run dmso_34 or nohits_35 per dataset); “TRUE” at SARS-CoV-2 NSP3 Mac1 [3] (crystal soak, Compound_concentration 100 mM, Echo_dispense_volume 40 nl, PanDDA run (background map) dmso_34, nohits_35 or nohits_62); “TRUE” on SARS-CoV-2 NSP3 Mac1 [3] (crystal soak, compound stock 100 mM, Echo dispense volume 80 nl). For the same molecule, the “Modeled?” value on SARS-CoV-2 NSP3 Mac1 [3] (ligand modeled, crystal soak, Compound_concentration 100 mM, Echo_dispense_volume 40 nl) is listed as “TRUE”. This molecule also had a Refined occupancy on SARS-CoV-2 NSP3 Mac1 [3] (crystal soaking of Mac1) of 32.

For the molecule `O=C(O)CCC1CCCN(c2ncnc3[nH]c4cc(F)ccc4c23)C1` (stereo not drawn) [LL1_0018], the “DSF max dTma” value on SARS-CoV-2 NSP3 Mac1 [1] is 2.71 °C; at SARS-CoV-2 NSP3 Mac1 [4] it was 2.71 ˚C. In addition, the 50% inhibitory concentration (IC50) on SARS-CoV-2 NSP3 Mac1 [2] (HTRF) came to 25.8 µM. Besides, on SARS-CoV-2 NSP3 Mac1 [2] (setting [6]), the Ki is 22.4 µM. The “1-BDC (PanDDA)” value at SARS-CoV-2 NSP3 Mac1 [3] (setting [8]) worked out at 0.1. Moreover, the “Modeled?” value at SARS-CoV-2 NSP3 Mac1 [3] (setting [10]) is given as “TRUE”. Moreover, at SARS-CoV-2 NSP3 Mac1 [3] (crystal soaking of Mac1), the Refined occupancy is reported as 20. Also, on SARS-CoV-2 NSP3 Mac1 [3], the “HIT*” value is recorded as “Y”. Besides, on SARS-CoV-2 NSP3 Mac1 [4], the “Spearman est (compound concentration vs apparent Tm)” value worked out at 0.96.

Take `O=C(O)CC1CN(c2ncnc3[nH]c4cc(F)ccc4c23)CCO1` (stereo not drawn) [LL1_0014]: the half-maximal inhibitory concentration (IC50) at SARS-CoV-2 NSP3 Mac1 [2] (HTRF ADPr-peptide displacement from SARS-CoV-2 Mac1) is 16 to 29 µM and 16.4 to 28.7 µM; at SARS-CoV-2 NSP3 Mac1 [2] (HTRF), 16.4 µM and 28.7 µM. Besides, the Ki on SARS-CoV-2 NSP3 Mac1 [2] (setting [6]) was 14.3 µM and 25 µM. In addition, the 1-BDC at SARS-CoV-2 NSP3 Mac1 [3] (setting [8]) was found to be 0.11. In addition, at SARS-CoV-2 NSP3 Mac1 [3] (setting [11]), the “Modeled?” value is listed as “TRUE”. The Refined occupancy on SARS-CoV-2 NSP3 Mac1 [3] (crystal soaking of Mac1) is 22. Besides, the “HIT*” value at SARS-CoV-2 NSP3 Mac1 [3] is recorded as “Y”. Besides, the “displacement of the ADPr-conjugated peptide (off-target activity)” value at TARG1 (compound at 1 mM) and at MacroD2 (compound at 1 mM) was 50% in each case. Further, the “Spearman est (compound concentration vs apparent Tm)” value on SARS-CoV-2 NSP3 Mac1 [4] amounted to 0.91. For the same molecule, on SARS-CoV-2 NSP3 Mac1 [4], the “DSF max dTma” value is 3.21 ˚C.

For the molecule `OCc1cn(C2CCCN(c3ncnc4[nH]ccc34)C2)nn1` (stereo not drawn) [Z7864, ZINC000292637864], the “DSF max dTma” value at SARS-CoV-2 NSP3 Mac1 [1] was 0.32 °C.
